Measurements: patent US20090269795A1, “Mutant alpha4betadelta GABAA receptor and methods of treating anxiety or irritability” (priority 2007, published 2009)
Where a name gives a salt, the structure may show the parent alone.

Columns and labels:
α4β2δ GABAA receptors = test: Whole cell patch clamp of GABA-gated current, recombinant receptors in HEK-293 cells; assay type: cell-based, human or mouse α4, rat β2, human δ
From the text: (§1) Recombinant receptors: Transfection—Plasmids obtained from S. Vicini (rat α1, α5, β2, β3 and γ2), P. Whiting (human α4 and δ) and N. L. Harrison (mouse α4) were propagated in E coli DH5α and prepared using Qiagen Maxi- or Midi-prep kits. (Rat, mouse and human α1, β2, β3 and γ2 subunits are identical or nearly identical.) All receptors were transfected at a 1:1:1 ratio, except α1β2γ2 (1:1:5)^12, α4βδ (5:1:5)^13 and α4β2γ2 (5:1:1). HEK-293 cells were maintained in medium (DMEM:Ham's F-12 1:1) supplemented with 10% fetal calf serum at 37° C. in a humid 5% CO2 atmosphere. Cells were transfected using calcium phosphate or Polyfect (Qiagen) and co-transfected with enhanced green fluorescent protein (ratio of DNA to eGFP was 6:1 or 10:1 depending on the DNA concentration) for visualization. α4-containing GABAA receptors required 2-3 d for maximal levels of expression; all other receptors were recorded 1-2 d after transfection. Because mouse α4 and human α4-containing receptors yielded the same results, the currents were averaged together.
Whole cell patch clamp recording—GABA-gated currents were recorded at room temperature (20-22° C.) at a holding potential of −50 mV^14. The pipet solution contained (in mM): N-methyl-D-glucamine chloride 120, Cs4BAPTA 5 (Calbiochem), Mg-ATP 5, and an ATP regeneration system (20 mM Tris phosphocreatine and creatine kinase). Internal [Cl^−] or the holding potential were varied, using gluconate as the anion, to alter the direction of Cl^− flow, corrected for the junction potential. In some cases, current-voltage curves were constructed using the peak current response to agonist or agonist+THP across a range of holding potentials (−60 to +60) applied as 10 mV steps, or as a voltage ramp. […] Traces are presented as the average of 3 traces after subtraction of the leak current. […] This rapid application technique yields currents with a rapid rise phase. THP was also bath applied 30 s prior to tests of steroid effects. Currents were recorded using an Axopatch 1D amplifier (Axon Instruments) filtered at 2 kHz (four-pole Bessel filter) and detected at 10 kHz (pClamp 5.1). Analysis of peak current was accomplished with pClamp 9.2 and Origin software (Microcal).
Following the recording, the patch was blown out, and the open tip potential recorded using solutions with a 5% difference in NaCl osmolarity to verify the approximate solution exchange time. The time constant (τ) for desensitization was approximated using non-linear curve fitting routines with Levenburg-Marquardt algorithms (Origin software, Microcal). Goodness of fit was determined by minimizing the sum of the squares of deviations of the theoretical curve from the experimental points.
Recombinant receptors: Human embryonic kidney (HEK)-293 cells were transfected with α4 β2δ or other indicated subunit combinations (see Supplementary Methods) and co-transfected with enhanced green fluorescent protein for visualization. GABA-gated currents were recorded at room temperature (20-22° C.) at a holding potential of −50 mV^17 using a pipet solution containing 120 mM: N-methyl-D-glucamine chloride. Internal [Cl^−] or the holding potential were varied to alter the direction of Cl^− flow. […] Currents were recorded using an Axopatch 1D amplifier (Axon Instruments) filtered at 2 kHz (four-pole Bessel filter), detected at 10 kHz and analyzed with pClamp 9.2. Desensitization rate was determined using non-linear curve-fitting routines (Origin, Microcal; see next section).
Further Studies with Recombinant receptors: Transfection—Plasmids obtained from S. Vicini (rat α1, α5, β2, β3 and y2), P. Whiting (human α4 and 6) and N. L. Harrison (mouse α4) were propagated in E coli DH5α and prepared using Qiagen Maxi- or Midi-prep kits. (Rat, mouse and human α1, β2, β3 and γ2 subunits are identical or nearly identical.) All receptors were transfected at a 1:1:1 ratio, except a132γ2 (1:1:5)^12, α4β28 (5:1:5)^13 and α4β2γ2 (5:1:1). […]

female C57BL6 mice = test: Elevated plus maze (with or without restraint stress); assay type: in vivo, mouse; conditions: pre-administration before restraint stress; pubertal
From the text: Animal subjects. Prepubertal and pubertal female C57BL6 mice (3½-6 weeks old, +/+ and δ^−/−1) were housed in a reverse light:dark cycle (12:12). Both sets of mice were originally supplied by G. Homanics (Univ. of Pittsburgh), and were bred on site, with +/+ mice supplemented from Jackson Laboratories (Bar Harbor, Me.). Initially, age-matched+/+littermates of the δ^−/−were used as controls, but because they were indistinguishable from C57BL6, data from both groups were pooled. Genotyping of the tails verified that mice were homozygous δ^−/−. Some animals (+/+ or δ^−/−) were injected with finasteride (1,(5α)-androstene-4-aza-3-one-N-tert-butyl-17β-carboxaminde, Steraloids, 50 mg kg^, −1 intraperitoneally, 3 days) to block THP synthesis^2 or oil vehicle on a daily basis 1-1.5 h before dark onset, when THP levels increase, and tested 30 min. later. The onset of puberty was determined by vaginal opening, and pubertal mice tested on the day of first metestrus, identified by vaginal morphology and verification of first estrus the previous day. Mice with vaginal smears representative of diestrus were excluded from the study. Individual stages of puberty were not distinguished, and pre-pubertal mice were used before any visible signs of pubertal development, assessed by development of the peri-vaginal area. In some cases, pubertal mice were injected with replacement THP (3α-OH-5β-pregnan-20-one, 10 mg kg^−1, intraperitoneally in oil) for three days before testing. Procedures were in accordance with the SUNY Downstate Institutional Animal Care and Use Committee.
Restraint stress. In order to test the effect stress-induced release of THP^6,46,47 on anxiety, mice were restrained in a clear Plexiglas tube-type holder (Harvard Apparatus) for 45 min. and tested 20 min. later on the elevated plus maze (see Supplementary Methods). Open arm time was evaluated for 5 min. on the elevated plus maze. A decrease in open arm time reflects an increase in anxiety^18. In all cases, the results from each mouse tested after restraint was expressed relative to the averaged results from the sham controls, which were identical to the stressed animals (age, genotype, sex, drug-injected), except that they were not subjected to restraint stress.
Elevated plus maze. Testing rodent behavior on the elevated plus maze is an established animal model of anxiety^31. The plus maze consists of four 8×35 cm arms at 90° angles, elevated 57 cm above the floor. Two arms are enclosed by 33 cm walls, and two arms have no walls (“open arms”). […] Each animal was initially acclimated to the room for 30 min-1 h before being placed in the center of the maze, and exploratory activity recorded for 5 min. […]

hippocampal THP levels = test: Radioimmunoassay of hippocampal 3α,5α-THP levels; assay type: in vivo, mouse; conditions: administration of 5α-reductase blocker
From the text: Animal subjects. Prepubertal and pubertal female C57BL6 mice (3½-6 weeks old, +/+ and δ^−/−1) were housed in a reverse light:dark cycle (12:12). Both sets of mice were originally supplied by G. Homanics (Univ. of Pittsburgh), and were bred on site, with +/+ mice supplemented from Jackson Laboratories (Bar Harbor, Me.). Initially, age-matched+/+littermates of the δ^−/−were used as controls, but because they were indistinguishable from C57BL6, data from both groups were pooled. Genotyping of the tails verified that mice were homozygous δ^−/−. […] The onset of puberty was determined by vaginal opening, and pubertal mice tested on the day of first metestrus, identified by vaginal morphology and verification of first estrus the previous day. […] Individual stages of puberty were not distinguished, and pre-pubertal mice were used before any visible signs of pubertal development, assessed by development of the peri-vaginal area. […]
Radioimmunoassay for 3α,5α-THP. Hippocampal levels of 3α,5α-THP were assessed by radioimmunoassay (RIA) by C. […] Sample tube concentrations were calculated using the logit-log method^6, interpolation of the standards, and correction for recovery. […]

α4β2γ2 receptors = test: Whole cell patch clamp of GABA-gated current, recombinant receptors in HEK-293 cells; assay type: cell-based, human or mouse α4, rat β2, rat γ2
From the text: as §1
Whole cell patch clamp recording—GABA-gated currents were recorded at room temperature (20-22° C.) at a holding potential of −50 mV^14. […] Currents were recorded using an Axopatch 1D amplifier (Axon Instruments) filtered at 2 kHz (four-pole Bessel filter) and detected at 10 kHz (pClamp 5.1). […]

[1] = test system: CA1 hippocampal pyramidal cells (α4βδ receptors); test: La3+-sensitive gaboxadol-induced current, whole cell patch clamp, hippocampal slice; assay type: cell-based, mouse; conditions: 30 μM GBX, after puberty or THP Wd
[2] = test system: CA1 hippocampal pyramidal cells; test: Input resistance and neuronal excitability (spiking), hippocampal slice; assay type: cell-based, mouse; conditions: puberty
Protocol: Tonic current was recorded as the difference current produced by 120 μM gabazine, which blocks all GABAA receptor, before and after 30 nM THP^24. Current was also recorded in response to 2 s 10 mV steps in the holding potential, and current-voltage curves generated to the steady-state current. Because fast-inactivating conductances would not be excluded in a voltage ramp, stable steady-state current responses were used instead to construct the current-voltage (IV) curves. Input resistance (Rm) was calculated from the current response to voltage steps from −60 to −40 mV using Ohm's Law. The reversal potential was determined by the […] of the IV curve (−90 to −10 mV). The gabazine-sensitive slope conductance was assessed as the slope of the linear portion of outward current plot recorded before and after THP after subtraction of the gabazine-generated current (in the presence of L-655,708 to block α5-GABAA receptors). Only data with a stable baseline and pipet access resistance <10 MΩ were included in the analysis.
Effects of THP on cell excitability were tested by monitoring spiking using cell attached patch recordings^31 in voltage clamp mode (−40 mV holding potential, 150 mM NaCl intrapipet solution) or assessing the current threshold to spiking and spike frequency in current clamp mode (0.01-0.3 nA steps, starting from −1 nA, 1 s duration). (More complete details are supplied in the Supplementary Methods.)

[3] = test system: CA1 hippocampal pyramidal cell dendrites; test: Tight-seal cell-attached current-clamp recording during dendritic agonist application; assay type: cell-based, mouse; conditions: 5 μM; stratum radiatum; pubertal
Protocol: Tonic current was recorded as the difference current produced by the selective GABAA receptor antagonist gabazine (120 μM) before and after 30 nM THP^4,29, while gramicidin perforated-patch recordings^33 were accomplished using 140 mM KCl plus 25 μg ml^−1 gramicidin in the pipet solution, recorded when the access resistance dropped to <60 MΩ after tight seal formation. Estimates of the direction of Cl^− current were obtained by recording using tight-seal cell-attached techniques^31 (>1 GΩ seal) in current clamp mode. A downward deflection signified outward (i.e., hyperpolarizing) Cl^− current.
To determine whether THP inhibition of GABAergic currents at puberty was a physiological phenomenon, we initially verified that GABA-gated currents were outward in CA1 hippocampal pyramidal cell dendrites at the onset of puberty. […] The voltage change was recorded in current clamp mode from the soma using tight-seal cell attached techniques at a holding current of 0 pA^31.

CC(=O)[C@H]1CC[C@H]2[C@@H]3CC[C@H]4C[C@@H](O)CC[C@]4(C)[C@H]3CC[C@]12C (single isomer, unassigned; isomer 3) [3β-OH isomer, 3βOH-5α[β]-pregnan-20-one]
inhibitory effect on outward GABA-gated current (α4β2δ GABAA receptors; isomer selectivity, FIG. 1e): selective for the active 3α-OH isomer, but not the inactive 3,3-OH isomer | effect on stress-induced increase in anxiety (female C57BL6 mice): prevented the stress-induced increase in anxiety

CC(C)(C)NC(=O)[C@H]1CC[C@H]2[C@@H]3CC[C@H]4NC(=O)C=C[C@]4(C)[C@H]3CC[C@]12C [5α-reductase blocker, 1,(5α)-androstene-4-aza-3-one-N-tert-butyl-17β-carboxaminde]
decline in hippocampal THP levels (hippocampal THP levels): 58±10%

NCCCC(=O)O [GABA]
GABA EC20 (α4β2δ GABAA receptors): […] | GABA EC75 (α4β2δ GABAA receptors): […] | GABA EC20 (α4β2γ2 receptors): 5000 nM

[La+3] [La^3+]
reduction of GBX-generated current ([1]; 300 μM La3+): 50-70%

CCN(c1ccccc1)c1cc(=NC)n(C)c(C)n1.Cl [ZD 7288]
effect of Ih blockade on excitatory effect of THP ([2]; 20 μM ZD 7288): did not prevent the excitatory effect of THP

COc1ccc(-c2ccc(=N)n(CCCC(=O)O)n2)cc1 [gabazine, 6-imino-3-(4-methyoxyphenyl)-1 (6H)-pyridazinebutanoic acid hydrobromide]
effect on THP-induced increase of input resistance ([2]; 120 μM gabazine pre-applied): prevented

Oc1noc2c1CCNC2 [gaboxadol, 4,5,6,7-Tetrahydroisoxazolo[5,4-c]pyridin-3-ol]
GBX-generated current vs pre-pubertal slices [1]: significantly larger current | change in membrane potential on dendritic application [3]: downward shift of the membrane potential
